Results on 14 compounds are retold here after US20060229324A1, “Quinazolin-4-one derivatives” (priority 2002, published 2006).

The subject of experiment [1] is RBL-2H3, a rat basophilic leukemia cell to express hematopoietic prostaglandin D synthase. Kind of experiment: Prostaglandin D2 production inhibition test using cells (A23187-induced, EIA). The settings on record: RBL-2H3 cells, A23187 2.5 μM; for inhibition at 10 µM: Rattus norvegicus, RBL-2H3, Drug Concentration 10 μM, read-out: Inhibitory Ratio of Prostaglandin D2 (PGD2) Production (%); for Inhibitory Ratio of Prostaglandin D2 (PGD2) Production (%): Drug Concentration 10 μM. The format is cell-based. Here is the method: RBL-2H3, a rat basophilic leukemia cell to express hematopoietic prostaglandin D synthase, was inoculated in a 24 well plate and incubated overnight. After replacement with a medium in the presence or absence of a test compound, preincubation was carried out at 37° C. for one hour. After washing of the cells with PBS(-), the medium was replaced with a Hepes buffer solution (pH7.4) in the presence or absence of the test compound, and incubation was continued at 37° C. for 15 minutes. Then, calcium ionophore (A23187) at a final concentration of 2.5 μM was added, and incubation was carried out at 37° C. for 15 minutes to induce the production of PGD2. The supernatant of the cells was collected, and the amount of PGD2 flowed out in the supernatant was measured by EIA kit by Cayman. The inhibitory ratio of the production of PGD2 by the test compound was calculated assuming the amount of PGD2 produced by A23187 in the absence of the test compound as being 100%.

The target of experiment [2] is human hematopoietic prostaglandin D2 synthase (Homo sapiens, UniProt O60760). Kind of experiment: Inhibitory activity against spleen-type (hematopoietic) prostaglandin D2 synthase, [14C]PGH2 to PGD2, TLC. The format is biochemical. The settings on record: for inhibition at 10 µM / inhibition at 30 µM: read-out: Inhibitory Ratio of Prostaglandin D2 (PGD2) Synthase (%). Here is the method: A buffer solution of 100 mM Tris (hydroxymethyl)aminomethane/HCl buffer (pH8.0) containing glutathione (0.1 mM) and human hematopoietic prostaglandin D2 synthase (adequate quantity) was preincubated at 25° C. for 5 minutes in the presence or absence of a test compound, and then 14C labeled prostaglandin H2 ([14C]PGH2) (10 μM) was added, and the buffer solution was further incubated at 25° C. for one minute. A mixture of ether, methanol, and citric acid was added to the reaction mixture, and the ether layer was developed on silica gel thin-layer chromatography (TLC) (eluent=ether: methanol: acetic acid=90:2:1), and the PGD2 produced was measured by exposure to an imaging plate. The enzyme inhibitory rates of test compounds were calculated assuming the amount of production of PGD2 without the test compound being 100%.
human hematopoietic prostaglandin D2 synthase, sequence (O60760 whole entry): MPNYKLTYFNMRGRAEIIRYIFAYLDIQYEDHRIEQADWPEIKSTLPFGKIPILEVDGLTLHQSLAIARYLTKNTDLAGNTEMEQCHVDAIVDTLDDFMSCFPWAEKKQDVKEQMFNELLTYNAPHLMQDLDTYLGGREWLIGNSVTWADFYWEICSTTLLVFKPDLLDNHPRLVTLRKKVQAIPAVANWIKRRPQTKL

Regarding `Cc1nn(-c2ccccc2)c(O)c1/C=N/n1c(C)nc2ccccc2c1=O` [Compound 1, 3-[(5-hydroxy-3-methyl-1-phenylpyrazol-4-yl)methylidene]-amino-2-methyl-3,4-dihydroquinazolin-4-one], the figures for the inhibition at 10 µM in experiment [1] and in experiment [2] (Drug Concentration 10 μM) were 26% and 50%, respectively. In experiment [2] (Drug Concentration 30 μM), the inhibition at 30 µM was found to be 76%.

Take `CCOc1c(/C=N/n2c(C)nc3ccccc3c2=O)c(C)nn1-c1ccccc1` [Compound 3, 3-[(5-ethoxy-3-methyl-1-phenylpyrazol-4-yl)methylidene]amino-2-methyl-3,4-dihydroquinazolin-4-one]: the inhibition at 10 µM in experiment [1] was found to be 21%; in experiment [2] (Drug Concentration 10 μM), 13%.

With `Cc1nc2ccccc2c(=O)n1/N=C/c1c(C(F)(F)F)nn(-c2ccccc2)c1O` [Compound 7, 3-[(5-hydroxy-1-phenyl-3-(trifluoromethyl)pyrazol-4-yl)-methylidene]amino-2-methyl-3,4-dihydroquinazolin-4-one], the inhibition at 10 µM in experiment [1] stood at 50%; in experiment [2] (Drug Concentration 10 μM), 96%. Besides, in experiment [2] (Drug Concentration 30 μM), the inhibition at 30 µM worked out at 105%.

For `Cc1nn(-c2ccc(Cl)cc2)c(O)c1C=Nn1c(C)nc2ccccc2c1=O` [Compound 17, 3-{[1-(4-chlorophenyl)-3-methyl-5-hydroxypyrazol-4-yl]methylidene}amino-2-methyl-3,4-dihydroquinazolin-4-one], the inhibition at 10 µM worked out at 21% in experiment [1] and 29% in experiment [2] (Drug Concentration 10 μM).

For the compound `Cc1nn(-c2ccc([N+](=O)[O-])cc2)c(O)c1C=Nn1c(C)nc2ccccc2c1=O` [Compound 20, 3-{[3-methyl-1-(4-nitrophenyl)-5-hydroxypyrazol-4-yl]-methylidene}amino-2-methyl-3,4-dihydroquinazolin-4-one], the inhibition at 10 µM in experiment [1] turned out to be 15%; in experiment [2] (Drug Concentration 10 μM) it was 37%. In addition, the inhibition at 30 µM in experiment [2] (Drug Concentration 30 μM) was determined as 83%.

Turning to `Cc1nn(-c2ccccc2)c(O)c1/C=N/n1c(-c2ccccc2)nc2ccccc2c1=O` [Compound 24, 3-[(5-hydroxy-3-methyl-1-phenylpyrazol-4-yl)methylidene]-amino-2-phenyl-3,4-dihydroquinazolin-4-one], the inhibition at 10 µM in experiment [1] was 59%.

On to `Cc1nn(-c2ccccc2)c(O)c1/C=N/n1c(C(C)(C)C)nc2ccccc2c1=O` [Compound 25, 2-tert-butyl-3-[(5-hydroxy-3-methyl-1-phenylpyrazol-4-yl)methylidene]amino-3,4-dihydroquinazolin-4-one], for which the inhibition at 10 µM in experiment [1] turned out to be 47%.

As for `COc1ccc(-c2nc3ccccc3c(=O)n2N=Cc2c(C)nn(-c3ccccc3)c2O)cc1` [Compound 30, 3-[(5-hydroxy-3-methyl-1-phenylpyrazol-4-yl)methylidene]-amino-2-(4-methoxyphenyl)-3,4-dihydroquinazolin-4-one], in experiment [1], the “Inhibitory Ratio of Prostaglandin D2 (PGD2) Production (%)” value (from here on “Inhibitory Ratio … (PGD2) Production (%)”) was found to be 28%. Moreover, the “Inhibitory Ratio of Prostaglandin D2 (PGD2) Synthase (%)” value in experiment [2] (Drug Concentration 10 μM) was 51%; in experiment [2] (Drug Concentration 30 μM), 71%.

`Cc1nn(-c2ccccc2)c(O)c1/C=N/n1c(C)nc2ccc(Br)cc2c1=O` [Compound 37, 6-bromo-3-[(5-hydroxy-3-methyl-1-phenylpyrazol-4-yl)-methylidene]amino-2-methyl-3,4-dihydroquinazolin-4-one]: the inhibition at 10 µM came out at 32% in experiment [1] and 15% in experiment [2] (Drug Concentration 10 μM). Also, the inhibition at 30 µM in experiment [2] (Drug Concentration 30 μM) amounted to 56%.

For the compound `Cc1nn(-c2ccccc2)c(O)c1C=NN1C(=O)c2ccccc2NC1CO` (stereo not shown) [Compound 39, 3-[(5-hydroxy-3-methyl-1-phenylpyrazol-4-yl)methylidene]-amino-2-hydroxymethyl-1,2,3,4-tetrahydroquinazolin-4-one], the “Inhibitory Ratio … (PGD2) Production (%)” value in experiment [1] came to 70%. In addition, the “Inhibitory Ratio of Prostaglandin D2 (PGD2) Synthase (%)” value is 77% in experiment [2] (Drug Concentration 10 μM) and 46% in experiment [2] (Drug Concentration 30 μM).

Take `Cc1nn(-c2ccccc2)c(O)c1C=NN1C(=O)c2ccccc2NC1CO` (stereo not shown) [Compound 40, 3-[(5-hydroxy-3-methyl-1-phenylpyrazol-4-yl)-methylidene]amino-2-hydroxymethyl-1,2,3,4-tetrahydroquinazolin-4-one]: in experiment [1], the inhibition at 10 µM turned out to be 74%.

On to `Cc1nn(-c2ccccc2)c(O)c1C=NN1C(=O)c2ccccc2NC1CO` (stereo not shown) [Compound 41, 3-[(5-hydroxy-3-methyl-1-phenylpyrazol-4-yl)-methylidene]amino-2-hydroxymethyl-1,2,3,4-tetrahydroquinazolin-4-one], for which, in experiment [1], the “Inhibitory Ratio … (PGD2) Production (%)” value is 80%.

As to `Cc1nc2ccccc2c(=O)n1N=Cc1c(C23CC4CC(CC(C4)C2)C3)nn(-c2ccccc2)c1O` [Compound 44], in experiment [1], the “Inhibitory Ratio … (PGD2) Production (%)” value was 100%.

`Cc1nc2ccccc2c(=O)n1N=Cc1c(-c2ccc(C(C)(C)C)cc2)nn(-c2ccccc2)c1O` [Compound 45]: the “Inhibitory Ratio … (PGD2) Production (%)” value in experiment [1] is on record as 100%.
